Results on three compounds are retold here after PubChem BioAssay AID679 (PCMD, 2007).

Activity calls are given as the source filed them. How the calls were made is not given here.

Coagulation factor XI (Homo sapiens), sequence (P03951 19-387 limits assumed): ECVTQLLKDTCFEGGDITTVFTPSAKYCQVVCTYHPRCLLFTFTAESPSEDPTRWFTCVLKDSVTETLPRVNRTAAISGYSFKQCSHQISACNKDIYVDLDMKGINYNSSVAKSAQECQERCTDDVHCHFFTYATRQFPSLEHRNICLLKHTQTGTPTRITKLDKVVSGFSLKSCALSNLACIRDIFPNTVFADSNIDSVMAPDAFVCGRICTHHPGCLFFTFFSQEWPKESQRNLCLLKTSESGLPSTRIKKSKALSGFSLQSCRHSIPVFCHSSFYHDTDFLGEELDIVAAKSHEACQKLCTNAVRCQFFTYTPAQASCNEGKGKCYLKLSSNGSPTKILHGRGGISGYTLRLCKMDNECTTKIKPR
Coagulation factor XI (Homo sapiens), sequence (P03951 388-625 limits assumed): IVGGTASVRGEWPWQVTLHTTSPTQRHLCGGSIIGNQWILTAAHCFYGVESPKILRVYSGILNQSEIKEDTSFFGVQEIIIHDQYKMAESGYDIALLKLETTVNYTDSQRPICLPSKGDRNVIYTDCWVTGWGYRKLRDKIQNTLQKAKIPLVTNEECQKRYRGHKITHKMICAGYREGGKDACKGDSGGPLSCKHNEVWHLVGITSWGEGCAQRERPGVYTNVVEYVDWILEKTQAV

This test addresses Coagulation factor XI (Homo sapiens) (UniProt P03951). Kind of test: human FXIa inhibitor potency, dose response, biochemical (AID 679). The settings on record: purified human factor XIa enzymatic activity assay.
As to `COC(=O)c1ccc(NC(=O)CC2C(=O)N(c3ccc(C)cc3)C(=O)N2CC(C)C)cc1` (stereo not drawn), the IC50 was > 50 µM (inactive). The figure for `N#Cc1c(N)nc2c3c(sc(=N)c2c1N)NC(=O)CC3c1ccccc1Cl` (stereo not drawn) is > 50 µM (inactive). With `CC1=C(C(=O)OC(C)C)C(c2coc3ccccc3c2=O)C2=C(CCCC2=O)N1` (stereo not drawn) the figure was > 50 µM (inactive).

By IC50 is commonly meant the concentration needed to halve the response being measured.
